Data set [1] in a line: Metabolic stability in human liver microsomes assessed as intrinsic clearance. Type of data set: ADME, Microsome. The settings on record: read-out: CLH.
The nature of data set [2]: Plasma protein binding in human assessed as unbound fraction by rapid equilibrium dialysis method. It counts as ADME, cell-free.
Data set [3] concerns the target T1, Tyrosine-protein kinase BTK (Homo sapiens, UniProt Q06187). Briefly: Inhibition of BTK (unknown origin).
A short description of data set [4]: Inhibition of CD69 expression on CD19 positive B cells in anti-IgD stimulated human whole blood. It counts as functional, tissue-based. The settings on record: CD19 positive B cell.
Data set [5] can be described thus: Solubility of the compound at pH 7. It counts as physicochemical. The settings on record: buffer.
The nature of data set [6]: Metabolic stability in rat liver microsomes assessed as intrinsic clearance. It counts as ADME, Microsome. The settings on record: read-out: CLH. Background: Liver microsomes are vesicles of endoplasmic reticulum, rich in cytochrome P450 enzymes.
Data set [7] in a line: Plasma protein binding in rat assessed as unbound fraction by rapid equilibrium dialysis method. Type of data set: ADME, cell-free.
Data set [8] in a line: Clearance in iv dosed Sprague-Dawley rat. Type of data set: ADME, organism-based. The settings on record: in vivo.
Data set [9] deals with Tyrosine-protein kinase Blk (Homo sapiens, UniProt P51451). Briefly: Binding affinity to BLK (unknown origin) assessed as dissociation constant by KINOMEscan analysis.
Data set [10] addresses T2, Tyrosine-protein kinase TXK (Homo sapiens, UniProt P42681).
T2 sequence (P42681 whole entry): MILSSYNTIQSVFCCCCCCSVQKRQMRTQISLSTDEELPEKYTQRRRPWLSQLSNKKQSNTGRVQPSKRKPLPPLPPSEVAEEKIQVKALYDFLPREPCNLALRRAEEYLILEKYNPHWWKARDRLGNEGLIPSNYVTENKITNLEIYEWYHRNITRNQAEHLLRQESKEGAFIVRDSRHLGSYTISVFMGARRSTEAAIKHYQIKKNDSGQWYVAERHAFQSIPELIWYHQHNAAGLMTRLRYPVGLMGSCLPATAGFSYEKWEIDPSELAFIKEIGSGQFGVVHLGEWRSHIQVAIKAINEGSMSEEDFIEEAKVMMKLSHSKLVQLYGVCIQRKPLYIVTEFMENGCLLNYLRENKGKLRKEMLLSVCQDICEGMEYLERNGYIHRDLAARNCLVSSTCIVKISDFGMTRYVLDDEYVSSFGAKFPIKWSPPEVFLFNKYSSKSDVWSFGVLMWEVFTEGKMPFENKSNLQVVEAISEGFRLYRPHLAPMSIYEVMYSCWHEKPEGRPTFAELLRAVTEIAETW
Briefly: Binding affinity to TXK (unknown origin) assessed as dissociation constant by KINOMEscan analysis.

The target in data set [11] is T1, Tyrosine-protein kinase BTK. In words: Inhibition of pBTK in human whole blood. Type of data set: tissue-based.
The target of data set [12] is Epidermal growth factor receptor (Homo sapiens, UniProt P00533). Briefly: Binding affinity to EGFR (unknown origin) assessed as dissociation constant by KINOMEscan analysis.
Data set [13] addresses T3, Tyrosine-protein kinase ITK/TSK (Homo sapiens, UniProt Q08881).
T3 sequence (Q08881 whole entry): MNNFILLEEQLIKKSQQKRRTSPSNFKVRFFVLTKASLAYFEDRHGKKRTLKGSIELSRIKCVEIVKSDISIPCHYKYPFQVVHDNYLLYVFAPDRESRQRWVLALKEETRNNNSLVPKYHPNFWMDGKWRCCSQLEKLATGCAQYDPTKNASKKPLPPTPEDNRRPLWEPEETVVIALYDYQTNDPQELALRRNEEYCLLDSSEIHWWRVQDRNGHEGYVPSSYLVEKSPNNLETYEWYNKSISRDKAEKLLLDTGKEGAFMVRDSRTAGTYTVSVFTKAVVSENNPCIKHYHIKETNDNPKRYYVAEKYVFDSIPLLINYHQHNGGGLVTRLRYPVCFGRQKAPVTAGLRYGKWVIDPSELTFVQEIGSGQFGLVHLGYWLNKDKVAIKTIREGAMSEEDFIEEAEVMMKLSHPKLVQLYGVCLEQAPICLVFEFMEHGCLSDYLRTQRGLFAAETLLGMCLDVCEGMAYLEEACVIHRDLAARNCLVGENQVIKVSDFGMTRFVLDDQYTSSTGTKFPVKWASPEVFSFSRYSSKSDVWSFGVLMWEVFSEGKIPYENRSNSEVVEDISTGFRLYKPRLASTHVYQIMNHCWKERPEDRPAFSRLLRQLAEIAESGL
In words: Binding affinity to ITK (unknown origin) assessed as dissociation constant by KINOMEscan analysis.

The target of data set [14] is Receptor tyrosine-protein kinase erbB-4 (Homo sapiens, UniProt Q15303). In words: Binding affinity to ERBB4 (unknown origin) assessed as dissociation constant by KINOMEscan analysis.
The target in data set [15] is T4, Tyrosine-protein kinase Tec (Homo sapiens, UniProt P42680).
T4 sequence (P42680 whole entry): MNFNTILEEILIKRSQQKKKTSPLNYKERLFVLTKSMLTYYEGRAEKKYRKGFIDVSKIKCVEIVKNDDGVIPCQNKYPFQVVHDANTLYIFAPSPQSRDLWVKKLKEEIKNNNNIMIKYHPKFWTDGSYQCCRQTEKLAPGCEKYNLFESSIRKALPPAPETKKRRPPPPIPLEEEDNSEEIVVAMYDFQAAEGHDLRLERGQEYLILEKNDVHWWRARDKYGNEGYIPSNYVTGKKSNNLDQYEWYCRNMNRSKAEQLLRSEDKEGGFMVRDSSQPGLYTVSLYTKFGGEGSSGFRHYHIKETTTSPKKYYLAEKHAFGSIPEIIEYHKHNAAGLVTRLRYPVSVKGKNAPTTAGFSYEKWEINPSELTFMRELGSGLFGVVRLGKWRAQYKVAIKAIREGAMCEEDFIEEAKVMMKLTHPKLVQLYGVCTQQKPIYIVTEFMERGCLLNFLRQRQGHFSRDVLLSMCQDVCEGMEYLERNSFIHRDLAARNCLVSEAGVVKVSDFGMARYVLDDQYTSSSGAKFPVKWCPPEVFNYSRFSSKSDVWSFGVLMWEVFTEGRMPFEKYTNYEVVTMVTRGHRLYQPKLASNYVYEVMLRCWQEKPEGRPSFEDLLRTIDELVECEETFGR
In words: Binding affinity to TEC (unknown origin) assessed as dissociation constant by KINOMEscan analysis.

The target of data set [16] is Receptor tyrosine-protein kinase erbB-2 (Homo sapiens, UniProt P04626). Briefly: Binding affinity to ERBB2 (unknown origin) assessed as dissociation constant by KINOMEscan analysis.
In data set [17] the target is T5, Tyrosine-protein kinase JAK3 (Homo sapiens, UniProt P52333).
T5 sequence (P52333 whole entry): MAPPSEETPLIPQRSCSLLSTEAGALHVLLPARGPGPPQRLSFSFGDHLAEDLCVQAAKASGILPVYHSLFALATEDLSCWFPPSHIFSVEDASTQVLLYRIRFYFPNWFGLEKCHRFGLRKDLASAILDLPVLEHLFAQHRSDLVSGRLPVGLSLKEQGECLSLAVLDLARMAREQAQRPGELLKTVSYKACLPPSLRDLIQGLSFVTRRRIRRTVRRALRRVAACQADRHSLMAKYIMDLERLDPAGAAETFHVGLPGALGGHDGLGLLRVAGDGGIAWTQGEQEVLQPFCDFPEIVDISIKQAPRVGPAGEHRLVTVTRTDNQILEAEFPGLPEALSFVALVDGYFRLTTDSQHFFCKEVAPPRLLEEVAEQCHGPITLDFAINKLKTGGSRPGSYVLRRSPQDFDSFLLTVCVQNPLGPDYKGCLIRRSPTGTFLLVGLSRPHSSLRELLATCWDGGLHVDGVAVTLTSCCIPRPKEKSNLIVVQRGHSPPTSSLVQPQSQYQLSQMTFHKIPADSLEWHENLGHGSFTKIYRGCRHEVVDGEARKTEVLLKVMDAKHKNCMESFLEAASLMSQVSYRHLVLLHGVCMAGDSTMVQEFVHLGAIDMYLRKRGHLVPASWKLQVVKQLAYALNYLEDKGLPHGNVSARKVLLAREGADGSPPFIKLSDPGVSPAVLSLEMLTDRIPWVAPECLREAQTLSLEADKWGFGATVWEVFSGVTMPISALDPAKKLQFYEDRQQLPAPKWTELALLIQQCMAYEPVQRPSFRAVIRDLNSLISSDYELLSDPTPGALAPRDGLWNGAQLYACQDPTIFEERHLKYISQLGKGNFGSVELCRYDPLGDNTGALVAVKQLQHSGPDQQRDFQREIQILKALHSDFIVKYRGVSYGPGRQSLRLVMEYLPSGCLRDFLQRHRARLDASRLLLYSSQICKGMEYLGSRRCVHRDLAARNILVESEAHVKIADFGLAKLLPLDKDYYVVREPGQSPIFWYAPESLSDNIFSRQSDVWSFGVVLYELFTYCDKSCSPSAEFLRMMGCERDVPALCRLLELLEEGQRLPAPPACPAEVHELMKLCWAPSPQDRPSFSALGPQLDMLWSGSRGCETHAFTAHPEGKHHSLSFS
In words: Binding affinity to JAK3 (unknown origin) assessed as dissociation constant by KINOMEscan analysis.

In brackets after ≈: the same amount, converted by molar mass.

The values below come from ChEMBL document CHEMBL5131445, “Optimization of a novel piperazinone series as potent selective peripheral covalent BTK inhibitors” (Bioorg Med Chem Lett, 2022).

A word on the fraction unbound: it is free concentration divided by total concentration. One may read the IC50 as the concentration that inhibits the measured activity by half. Low readings indicate inhibition by little substance, high ones a need for much substance. As usually defined, the solubility is how much of the substance goes into solution per volume. Lower therefore signals little dissolved substance. In general, clearance refers to a measure of how efficiently the substance is removed, as volume per time. By Kd is commonly meant the free concentration of one partner at which half of the binding sites on the other are occupied at equilibrium, for simple one-to-one binding.

Sequence of Tyrosine-protein kinase Blk (P51451 whole entry): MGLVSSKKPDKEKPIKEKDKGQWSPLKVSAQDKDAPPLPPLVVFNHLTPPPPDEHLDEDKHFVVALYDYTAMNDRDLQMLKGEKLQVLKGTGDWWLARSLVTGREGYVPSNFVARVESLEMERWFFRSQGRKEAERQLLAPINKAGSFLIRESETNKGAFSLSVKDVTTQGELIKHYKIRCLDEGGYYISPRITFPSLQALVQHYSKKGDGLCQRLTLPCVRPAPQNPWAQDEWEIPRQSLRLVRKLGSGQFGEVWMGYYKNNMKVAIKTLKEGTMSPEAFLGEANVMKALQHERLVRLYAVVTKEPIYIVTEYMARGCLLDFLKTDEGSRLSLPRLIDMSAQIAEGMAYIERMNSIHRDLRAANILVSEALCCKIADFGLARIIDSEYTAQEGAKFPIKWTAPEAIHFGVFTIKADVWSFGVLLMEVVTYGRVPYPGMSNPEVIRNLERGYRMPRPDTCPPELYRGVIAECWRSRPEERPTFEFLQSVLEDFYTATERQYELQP
T1 sequence (Q06187 whole entry): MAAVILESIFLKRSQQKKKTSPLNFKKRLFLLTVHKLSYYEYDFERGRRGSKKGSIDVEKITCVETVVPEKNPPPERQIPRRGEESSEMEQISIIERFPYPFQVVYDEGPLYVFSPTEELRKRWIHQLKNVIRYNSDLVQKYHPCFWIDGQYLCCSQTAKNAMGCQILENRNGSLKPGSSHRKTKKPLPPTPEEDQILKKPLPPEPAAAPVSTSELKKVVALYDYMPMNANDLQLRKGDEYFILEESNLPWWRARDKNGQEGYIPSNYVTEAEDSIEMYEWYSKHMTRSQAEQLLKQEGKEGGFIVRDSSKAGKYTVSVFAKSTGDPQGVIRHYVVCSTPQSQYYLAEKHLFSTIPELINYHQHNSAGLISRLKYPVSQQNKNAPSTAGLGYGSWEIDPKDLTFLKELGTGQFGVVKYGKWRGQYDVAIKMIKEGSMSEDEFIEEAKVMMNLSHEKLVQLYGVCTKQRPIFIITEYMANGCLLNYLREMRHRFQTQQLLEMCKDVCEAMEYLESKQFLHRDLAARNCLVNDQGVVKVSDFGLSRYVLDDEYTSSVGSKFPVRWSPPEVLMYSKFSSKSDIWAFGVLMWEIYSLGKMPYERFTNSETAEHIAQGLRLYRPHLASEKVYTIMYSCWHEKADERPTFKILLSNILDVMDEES
Sequence of Receptor tyrosine-protein kinase erbB-2 (P04626 whole entry): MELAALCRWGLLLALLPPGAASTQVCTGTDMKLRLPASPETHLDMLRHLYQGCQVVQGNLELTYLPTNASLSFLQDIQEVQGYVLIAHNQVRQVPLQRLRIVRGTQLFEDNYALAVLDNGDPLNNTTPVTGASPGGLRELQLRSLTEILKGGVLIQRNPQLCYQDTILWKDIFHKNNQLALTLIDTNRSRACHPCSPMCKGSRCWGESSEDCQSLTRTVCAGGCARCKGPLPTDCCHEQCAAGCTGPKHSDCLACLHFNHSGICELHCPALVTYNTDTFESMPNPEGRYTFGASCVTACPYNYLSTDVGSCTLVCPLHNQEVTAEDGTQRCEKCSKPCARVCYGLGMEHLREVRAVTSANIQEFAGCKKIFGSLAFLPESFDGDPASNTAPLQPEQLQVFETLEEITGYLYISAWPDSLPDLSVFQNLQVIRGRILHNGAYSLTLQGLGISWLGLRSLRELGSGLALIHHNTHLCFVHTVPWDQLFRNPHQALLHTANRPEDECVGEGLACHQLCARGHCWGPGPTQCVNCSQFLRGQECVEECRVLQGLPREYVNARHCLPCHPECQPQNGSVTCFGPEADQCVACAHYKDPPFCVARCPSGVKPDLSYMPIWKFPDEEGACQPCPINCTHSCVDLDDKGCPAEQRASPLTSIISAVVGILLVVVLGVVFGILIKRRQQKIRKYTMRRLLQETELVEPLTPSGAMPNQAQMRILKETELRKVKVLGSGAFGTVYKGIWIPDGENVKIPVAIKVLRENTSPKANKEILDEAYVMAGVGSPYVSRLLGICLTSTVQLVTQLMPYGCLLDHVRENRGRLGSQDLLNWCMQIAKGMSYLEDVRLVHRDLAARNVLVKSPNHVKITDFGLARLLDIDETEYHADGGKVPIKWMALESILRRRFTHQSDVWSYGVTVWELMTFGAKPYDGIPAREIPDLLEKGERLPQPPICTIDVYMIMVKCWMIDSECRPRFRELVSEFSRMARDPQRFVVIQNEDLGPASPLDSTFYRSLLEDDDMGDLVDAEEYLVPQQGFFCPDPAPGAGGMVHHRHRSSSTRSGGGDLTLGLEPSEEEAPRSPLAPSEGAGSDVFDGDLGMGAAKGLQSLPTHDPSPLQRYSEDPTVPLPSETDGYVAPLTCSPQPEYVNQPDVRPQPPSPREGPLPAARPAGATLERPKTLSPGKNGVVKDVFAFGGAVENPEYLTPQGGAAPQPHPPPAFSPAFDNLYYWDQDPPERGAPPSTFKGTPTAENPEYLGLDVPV
Sequence of Receptor tyrosine-protein kinase erbB-4 (Q15303 whole entry): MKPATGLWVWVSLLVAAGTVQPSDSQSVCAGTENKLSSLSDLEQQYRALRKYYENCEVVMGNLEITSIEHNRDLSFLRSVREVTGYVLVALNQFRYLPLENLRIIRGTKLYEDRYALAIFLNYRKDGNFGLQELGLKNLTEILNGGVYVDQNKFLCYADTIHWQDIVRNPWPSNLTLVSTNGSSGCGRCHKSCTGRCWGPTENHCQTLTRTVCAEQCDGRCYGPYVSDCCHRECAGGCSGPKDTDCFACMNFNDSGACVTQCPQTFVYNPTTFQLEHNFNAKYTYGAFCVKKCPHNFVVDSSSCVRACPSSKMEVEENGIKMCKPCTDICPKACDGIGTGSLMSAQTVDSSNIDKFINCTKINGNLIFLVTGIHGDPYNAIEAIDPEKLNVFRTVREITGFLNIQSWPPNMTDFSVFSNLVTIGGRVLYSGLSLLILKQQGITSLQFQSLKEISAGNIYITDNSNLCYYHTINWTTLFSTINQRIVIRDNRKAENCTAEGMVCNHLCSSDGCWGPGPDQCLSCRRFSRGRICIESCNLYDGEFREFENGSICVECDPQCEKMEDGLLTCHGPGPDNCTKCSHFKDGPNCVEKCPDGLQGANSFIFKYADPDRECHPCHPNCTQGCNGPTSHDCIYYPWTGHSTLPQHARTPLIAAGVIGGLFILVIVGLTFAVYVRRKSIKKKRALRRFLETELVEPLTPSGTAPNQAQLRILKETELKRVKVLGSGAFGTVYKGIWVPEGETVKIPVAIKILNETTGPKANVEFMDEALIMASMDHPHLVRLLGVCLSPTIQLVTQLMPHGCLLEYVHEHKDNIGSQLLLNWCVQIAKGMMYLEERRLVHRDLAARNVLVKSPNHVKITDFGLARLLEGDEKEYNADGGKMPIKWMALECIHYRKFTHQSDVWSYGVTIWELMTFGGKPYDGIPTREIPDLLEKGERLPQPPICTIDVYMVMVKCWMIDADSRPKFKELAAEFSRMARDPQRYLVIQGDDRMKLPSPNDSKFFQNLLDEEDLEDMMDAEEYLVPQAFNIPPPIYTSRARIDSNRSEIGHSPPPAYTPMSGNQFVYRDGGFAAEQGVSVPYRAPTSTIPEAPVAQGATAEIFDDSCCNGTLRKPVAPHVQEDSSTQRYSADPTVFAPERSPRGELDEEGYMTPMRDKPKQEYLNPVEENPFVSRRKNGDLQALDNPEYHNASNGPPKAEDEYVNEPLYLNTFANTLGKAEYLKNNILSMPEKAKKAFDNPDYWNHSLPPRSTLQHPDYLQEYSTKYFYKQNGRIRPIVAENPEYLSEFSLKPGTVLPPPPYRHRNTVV
Sequence of Epidermal growth factor receptor (P00533 whole entry): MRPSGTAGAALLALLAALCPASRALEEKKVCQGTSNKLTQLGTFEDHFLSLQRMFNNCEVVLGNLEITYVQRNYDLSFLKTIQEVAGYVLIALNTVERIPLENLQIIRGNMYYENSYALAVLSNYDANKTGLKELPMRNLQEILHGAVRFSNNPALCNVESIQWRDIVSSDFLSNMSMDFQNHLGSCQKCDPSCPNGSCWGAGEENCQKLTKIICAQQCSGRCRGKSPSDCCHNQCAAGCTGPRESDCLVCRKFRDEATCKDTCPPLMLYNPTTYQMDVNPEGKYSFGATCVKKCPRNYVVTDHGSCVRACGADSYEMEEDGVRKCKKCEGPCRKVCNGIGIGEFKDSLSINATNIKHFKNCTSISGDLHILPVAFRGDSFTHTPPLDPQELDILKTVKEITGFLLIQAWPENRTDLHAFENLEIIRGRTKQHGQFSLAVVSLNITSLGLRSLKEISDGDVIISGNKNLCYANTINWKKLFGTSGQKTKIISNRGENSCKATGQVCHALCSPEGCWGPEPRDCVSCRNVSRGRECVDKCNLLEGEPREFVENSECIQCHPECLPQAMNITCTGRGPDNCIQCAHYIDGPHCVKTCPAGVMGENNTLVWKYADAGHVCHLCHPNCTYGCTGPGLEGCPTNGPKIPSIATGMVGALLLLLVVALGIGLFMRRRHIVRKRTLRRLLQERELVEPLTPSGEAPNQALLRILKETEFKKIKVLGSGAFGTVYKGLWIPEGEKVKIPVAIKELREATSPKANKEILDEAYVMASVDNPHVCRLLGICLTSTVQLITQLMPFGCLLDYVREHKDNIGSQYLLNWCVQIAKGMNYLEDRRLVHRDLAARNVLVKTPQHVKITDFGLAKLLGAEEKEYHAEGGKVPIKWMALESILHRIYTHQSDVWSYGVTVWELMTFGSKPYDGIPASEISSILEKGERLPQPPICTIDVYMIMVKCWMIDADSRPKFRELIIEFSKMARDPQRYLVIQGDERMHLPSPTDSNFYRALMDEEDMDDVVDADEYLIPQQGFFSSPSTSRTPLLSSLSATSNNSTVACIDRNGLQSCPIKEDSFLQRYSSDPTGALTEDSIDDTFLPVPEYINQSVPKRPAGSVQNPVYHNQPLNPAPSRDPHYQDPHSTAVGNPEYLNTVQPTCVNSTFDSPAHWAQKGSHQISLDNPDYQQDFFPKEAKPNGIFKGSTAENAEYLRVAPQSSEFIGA

In the case of `C=CC(=O)N(C)CCOc1cnccc1-c1ccc(CN2CCN(CC(C)(C)C)CC2=O)c(C)c1`, the CLint scaled in data set [1] was 809 mL/min/kg; in data set [6], 3680 mL/min/kg. For the same molecule, the free fraction (fraction unbound) in [2] turned out to be 0.11. Also, the figures for the IC50 in data set [3] and in data set [4] were 0.44 nM and 300 nM, respectively. In addition, the concentration in solution in data set [5] (solubility) was 55 µg/mL (≈ 115 µM).
Take `C=CC(=O)N(C)CCOc1cncnc1-c1ccc(CN2CCN(CC(C)C)CC2=O)c(C)c1`: the fraction unbound in [7] was 0.07; in data set [2], 0.24. The CLint scaled stood at 444 mL/min/kg in data set [1] and 2000 mL/min/kg in data set [6]. The 50% inhibitory concentration (IC50) in data set [3] is 0.83 nM; in data set [4], 130 nM.
In [8], `C=CC(=O)N(C)CCOc1c(N)ncnc1-c1cc(F)cc(NC(=O)c2ccc(C3CC3)cc2F)c1C` [REMIBRUTINIB] registered a clearance of 214 mL/min/kg. The CLint scaled turned out to be 80 mL/min/kg in data set [1] and 97 mL/min/kg in data set [6]. Besides, the dissociation constant (Kd) in [9] was 30000 nM; in data set [10] it was 17000 nM. Also, the half-maximal inhibitory concentration (IC50) in data set [4] amounted to 36 nM.
Regarding `Cc1cc(-c2ccnc(Nc3cnn(C)c3)n2)ccc1CN1CCN(CC(C)(C)C)CC1=O`, the results for the CLint scaled in data set [1] and in [6] were 228 mL/min/kg and 493 mL/min/kg, respectively. Besides, the fraction unbound in data set [2] came out at 0.014. Moreover, the half-maximal inhibitory concentration (IC50) in data set [3] was 1 nM; in data set [4], above 10000 nM; in [11], 1050 nM. Further, the concentration in solution in [5] (solubility) was 11 µg/mL (≈ 24.6 µM).
Turning to `C[C@@H]1CN(C2COC2)CCN1c1ccc(Nc2cc(-c3ccnc(N4CCn5c(cc6c5CC(C)(C)C6)C4=O)c3CO)cn(C)c2=O)nc1`, the Kd in data set [12] is 30000 nM; in data set [13], 190 nM; in data set [14], 30000 nM; in data set [9], 4100 nM; in data set [15] it was 210 nM; in [10], 2000 nM. In addition, the Kd is 30000 nM in data set [16] and 23000 nM in data set [17].
Take `C=CC(=O)N1CCC([C@@H]2CCNc3c(C(N)=O)c(-c4ccc(Oc5ccccc5)cc4)nn32)CC1` [ZANUBRUTINIB]: the Kd in [15] turned out to be 18 nM; in [10] it was 980 nM; in [16] it was 76 nM.
As for `CC#CC(=O)N1CCC[C@H]1c1nc(-c2ccc(C(=O)Nc3ccccn3)cc2)c2c(N)nccn12` [ACALABRUTINIB], the values for the Kd in data set [9] and in [10] were 18 nM and 24 nM, respectively.
With `C=CC(=O)N(C)CCOc1cncnc1-c1ccc(CN2CCN(CC(C)(C)C)CC2=O)c(C)c1`, the results for the CLint scaled in data set [1] and in [6] were 1370 mL/min/kg and 2500 mL/min/kg, respectively. Further, the fraction unbound in data set [2] was determined as 0.14. Besides, the values for the concentration for half-maximal inhibition (IC50) in data set [3] and in data set [4] were 1.35 nM and 630 nM, respectively. In data set [5], this molecule yielded a solubility of 13 µg/mL (≈ 27.1 µM).
